Experimental data: patent publication US7511065B2, “Mixed lineage kinase modulators” (Eli Lilly and Company, priority 2002, dated 2009)

What follows are compounds tested against T1, MLK-7 (Homo sapiens, UniProt Q9NYL2) (assay: In vitro assay of purified MLK-7 kinase activity (33P transfer from ATP to myelin basic protein)). Conditions: recombinant GST-tagged MLK-7 at 1 nm, 30 uM ATP, 5 uM MBP substrate, 2 hours room temperature; read-out: MLK7 IC50.
T1 construct: GST; His tag; made in house; host or cells: Sf9 insect cells (baculovirus, pVL1392)
T1 sequence (Q9NYL2 1-455 isoform Q9NYL2-2): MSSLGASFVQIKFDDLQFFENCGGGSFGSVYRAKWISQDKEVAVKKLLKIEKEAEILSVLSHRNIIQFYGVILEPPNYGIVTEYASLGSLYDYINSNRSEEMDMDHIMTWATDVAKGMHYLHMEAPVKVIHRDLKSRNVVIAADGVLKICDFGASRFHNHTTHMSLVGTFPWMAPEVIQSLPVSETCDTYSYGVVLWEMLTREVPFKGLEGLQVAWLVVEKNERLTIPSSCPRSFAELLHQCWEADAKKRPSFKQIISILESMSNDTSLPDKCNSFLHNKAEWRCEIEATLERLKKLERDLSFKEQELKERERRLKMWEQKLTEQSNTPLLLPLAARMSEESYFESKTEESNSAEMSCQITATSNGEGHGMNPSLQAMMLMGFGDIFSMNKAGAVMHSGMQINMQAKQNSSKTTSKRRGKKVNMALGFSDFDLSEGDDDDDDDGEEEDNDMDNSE
Assay type: biochemical
Method in brief: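 GST/His-tagged MLK-7 from Sf9 (baculovirus), 1 nM, with 5 uM MBP, 30 uM ATP plus 33P, 5 mM MgCl2, 2 mM DTT, 4% DMSO in 44 mM HEPES pH 7.4; 2 h at room temperature, stopped with phosphoric acid. Filter-bound 33P counted; IC50 for reduced phosphate transfer, Ki via Cheng-Prusoff.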

`Nc1ccc(-c2ccc3c(-c4c(-c5ccccn5)nn5c4CCC5)ccnc3c2)cc1Cl` [Example 90, 2-Chloro-4-[4-(2-pyridin-2-yl-5,6-dihydro-4H-pyrrolo[1,2-b]pyrazol-3-yl)-quinolin-7-yl]-phenylamine Ditrifluoroacetic Acid] and `Nc1nc2ccc(-c3ccc4c(-c5c(-c6ccccn6)nn6c5CCC6)ccnc4c3)cc2s1` [Example 94, 6-[4-(2-Pyridin-2-yl-5,6-dihydro-4H-pyrrolo[1,2-b]pyrazol-3-yl)-quinolin-7-yl]-benzothiazol-2-yl amine Tris trifluoroacetic Acid] cannot be ordered by IC50: at most 100 nM for the first, at most 100 nM for the second.

`Oc1c(F)cc(-c2ccc3c(-c4c(-c5ccccn5)nn5c4CCC5)ccnc3c2)cc1Cl` [Example 91, 2-Chloro-6-fluoro-4-[4-(2-pyridin-2-yl-5,6-dihydro-4H-pyrrolo[1,2-b]pyrazol-3-yl)-quinolin-7-yl]-phenol Trifluoroacetic Acid] and `Oc1cc(-c2ccc3c(-c4c(-c5ccccn5)nn5c4CCC5)ccnc3c2)cc(F)c1F` [Example 93, 2,3-Difluoro-5-[4-(2-pyridin-2-yl-5,6-dihydro-4H-pyrrolo[1,2-b]pyrazol-3-yl)-quinolin-7-yl]-phenol Trifluoroacetic Acid] cannot be ordered by IC50: at most 100 nM for the first, at most 100 nM for the second.

`NS(=O)(=O)c1ccc(-c2ccc3c(-c4c(-c5ccccn5)nn5c4CCC5)ccnc3c2)s1` [Example 92, 5-[4-(2-Pyridin-2-yl-5,6-dihydro-4H-pyrrolo[1,2-b]pyrazol-3-yl)-quinolin-7-yl]-thiophene-2-sulfonic acid amide Trifluoroacetic Acid] and `NS(=O)(=O)c1ccccc1-c1ccc2c(-c3c(-c4ccccn4)nn4c3CCC4)ccnc2c1` [Example 97, 2-[4-(2-Pyridin-2-yl-5,6-dihydro-4H-pyrrolo[1,2-b]pyrazol-3-yl)-quinolin-7-yl]-benzenesulfonamide] cannot be ordered by IC50: at most 100 nM for the first, at most 1000 nM for the second.

`NS(=O)(=O)c1ccc(-c2ccc3c(-c4c(-c5ccccn5)nn5c4CCC5)ccnc3c2)cc1` [Example 95, 4-[4-(2-Pyridin-2-yl-5,6-dihydro-4H-pyrrolo[1,2-b]pyrazol-3-yl)-quinolin-7-yl]-benzenesulfonamide] and `NS(=O)(=O)c1cccc(-c2ccc3c(-c4c(-c5ccccn5)nn5c4CCC5)ccnc3c2)c1` [Example 96, 3-[4-(2-Pyridin-2-yl-5,6-dihydro-4H-pyrrolo[1,2-b]pyrazol-3-yl)-quinolin-7-yl]-benzenesulfonamide] cannot be ordered by IC50: at most 100 nM for the first, at most 100 nM for the second.

`c1ccc(-c2nn3c(c2-c2ccnc4cc(-n5ccnc5)ccc24)CCC3)nc1` [Example 98, 7-Imidazol-1-yl-4-(2-pyridin-2-yl-5,6-dihydro-4H-pyrrolo[1,2-b]pyrazol-3-yl)quinoline Ditrifluoroacetic Acid] and `c1ccc(-c2nn3c(c2-c2ccnc4cc(-n5cccn5)ccc24)CCC3)nc1` [Example 100, 7-Pyrazol-1-yl-4-(2-pyridin-2-yl-5,6-dihydro-4H-pyrrolo[1,2-b]pyrazol-3-yl)quinoline Trifluoroacetic Acid] cannot be ordered by IC50: at most 1000 nM for the first, at most 100 nM for the second.

`c1ccc(-c2nn3c(c2-c2ccnc4cc(-n5cncn5)ccc24)CCC3)nc1` [Example 99, 4-(2-Pyridin-2-yl-5,6-dihydro-4H-pyrrolo[1,2-b]pyrazol-3-yl)-7-[1,2,4]triazol-1-yl-quinoline ditrifluoroacetic Acid] and `c1ccc(-c2nn3c(c2-c2ccnc4cc(-n5ccnn5)ccc24)CCC3)nc1` [Example 101, 4-(2-pyridin-2-yl-5,6-dihydro-4H-pyrrolo[1,2-b]pyrazol-3-yl-)-7-[1,2,3]triazol-1-yl-quinoline ditrifluoroacetic Acid] cannot be ordered by IC50: at most 1000 nM for the first, at most 1000 nM for the second.

`CC(C)(C)OC(=O)N1CCN(c2ccc3c(-c4c(-c5ccccn5)nn5c4CCC5)ccnc3c2)CC1` [Example 102, 4-[4-(2-Pyridin-2-yl-5,6-dihydro-4H-pyrrolo[1,2-b]pyrazol-3-yl)-quinolin-7-yl]-piperazine-1-carboxylic Acid tert-Butyl Ester] and `c1ccc(-c2nn3c(c2-c2ccnc4cc(N5CCCCC5)ccc24)CCC3)nc1` [Example 103, 7-Piperidin-1-yl-4-(2-pyridin-2-yl-5,6-dihydro-4H-pyrrolo[1,2-b]pyrazol-3-yl)-quinoline] cannot be ordered by IC50: at most 10000 nM for the first, at most 1000 nM for the second.

`O=S1(=O)CCN(c2ccc3c(-c4c(-c5ccccn5)nn5c4CCC5)ccnc3c2)CC1` [Example 104, 7-(1,1-Dioxo-1λ^6-thiomorph-olin-4-yl)-4-(2-pyridin-2-yl-5,6-dihydro-4H-pyrrolo[1,2-b]pyrazol-3-yl)-quinoline] and `O=C(c1ccc(-c2ccc3c(-c4c(-c5ccccn5)nn5c4CCC5)ccnc3c2)cc1)N1CCCCC1` [Example 122, Piperidin-1-yl-{4-[4-(2-pyridin-2-yl-5,6-dihydro-4H-pyrrolo[1,2-b]pyrazol-3-yl)-quinolin-7-yl]-phenyl}-methanone] cannot be ordered by IC50: at most 10000 nM for the first, at most 100 nM for the second.

`COC(=O)CCc1ccc(-c2ccc3c(-c4c(-c5ccccn5)nn5c4CCC5)ccnc3c2)cc1` [Example 106, 3-{4-[4-(2-pyridin-2-yl-5,6-dihydro-4H-pyrrolo[1,2-b]pyrazol-3-yl-)quinolin-7-yl]phenyl}propionic Acid Methyl Ester] and `NC(=O)CCc1ccc(-c2ccc3c(-c4c(-c5ccccn5)nn5c4CCC5)ccnc3c2)cc1` [Example 107, 3-{4-[4-(2-Pyridin-2-yl-5,6-dihydro-4H-pyrrolo[1,2-b]pyrazol-3-yl)quinolin-7-yl]phenyl}propionamide] cannot be ordered by IC50: at most 100 nM for the first, at most 100 nM for the second.

`CN(C)CCOc1ccc(-c2ccc3c(-c4c(-c5ccccn5)nn5c4CCC5)ccnc3c2)cc1` [Example 108, Dimethyl-(2-{4-[4-(2-Pyridin-2-yl-5,6-dihydro-4H-pyrrolo[1,2-b]pyrazol-3-yl)quinolin-7-yl]phenoxy}ethyl)amine Ditrifluoroacetic Acid] and `CN(C)CCCOc1ccc(-c2ccc3c(-c4c(-c5ccccn5)nn5c4CCC5)ccnc3c2)cc1` [Example 113, Dimethyl-(3-{4-[4-(2-Pyridin-2-yl-5,6-dihydro-4H-pyrrolo[1,2-b]pyrazol-3-yl)quinolin-7-yl]phenoxy}propyl)amine Ditrifluoroacetic Acid] cannot be ordered by IC50: at most 100 nM for the first, at most 100 nM for the second.

`c1ccc(-c2nn3c(c2-c2ccnc4cc(-c5ccc(OCCN6CCOCC6)cc5)ccc24)CCC3)nc1` [Example 109, 7-[4-(2-Morpholin-4-yl-ethoxy)phenyl]-4-(2-Pyridin-2-yl-5,6-dihydro-4H-pyrrolo[1,2-b]pyrazol-3-yl)quinoline Ditrifluoroacetic Acid] and `c1ccc(-c2nn3c(c2-c2ccnc4cc(-c5ccc(OCCCN6CCOCC6)cc5)ccc24)CCC3)nc1` [Example 114, 7-[4-(3-Morpholin-4-yl-propoxy)phenyl]-4-(2-Pyridin-2-yl-5,6-dihydro-4H-pyrrolo[1,2-b]pyrazol-3-yl)quinoline Ditrifluoroacetic Acid] cannot be ordered by IC50: at most 100 nM for the first, at most 100 nM for the second.

`c1ccc(-c2nn3c(c2-c2ccnc4cc(-c5ccc(OCCN6CCCCC6)cc5)ccc24)CCC3)nc1` [Example 110, 7-[4-(2-Piperidin-1-yl-ethoxy)phenyl]-4-(2-Pyridin-2-yl-5,6-dihydro-4H-pyrrolo[1,2-b]pyrazol-3-yl)quinoline Ditrifluoroacetic Acid] and `c1ccc(-c2nn3c(c2-c2ccnc4cc(-c5ccc(OCCN6CCCC6)cc5)ccc24)CCC3)nc1` [Example 111, 4-(2-Pyridin-2-yl-5,6-dihydro-4H-pyrrolo[1,2-b]pyrazol-3-yl)-7-[4-(2-pyrrolidin-1-yl-ethoxy)phenyl] quinoline Ditrifluoroacetic Acid] cannot be ordered by IC50: at most 100 nM for the first, at most 100 nM for the second.

`c1ccc(-c2nn3c(c2-c2ccnc4cc(-c5ccc(OCCCN6CCCCC6)cc5)ccc24)CCC3)nc1` [Example 112, 7-[4-(3-Piperdin-1-yl-propoxy)phenyl]-4-(2-Pyridin-2-yl-5,6-dihydro-4H-pyrrolo[1,2-b]pyrazol-3-yl)quinoline Ditrifluoroacetic Acid] and `c1ccc(-c2nn3c(c2-c2ccnc4cc(-c5ccc(OCCCN6CCCC6)cc5)ccc24)CCC3)nc1` [Example 115, 4-(2-Pyridin-2-yl-5,6-dihydro-4H-pyrrolo[1,2-b]pyrazol-3-yl)-7-[4-(3-pyrrolidin-1-yl-propoxy)phenyl] quinoline Ditrifluoroacetic Acid] cannot be ordered by IC50: at most 100 nM for the first, at most 100 nM for the second.

`NC(=O)COc1ccc(-c2ccc3c(-c4c(-c5ccccn5)nn5c4CCC5)ccnc3c2)cc1` [Example 117, 2-{4-[4-(2-Pyridin-2-yl-5,6-dihydro-4H-pyrrolo[1,2-b]pyrazol-3-yl)quinolin-7-yl]phenoxy}acetamide Trifluoroacetic Acid] and `FCCOc1ccc(-c2ccc3c(-c4c(-c5ccccn5)nn5c4CCC5)ccnc3c2)cc1` [Example 119, 7-[4-(2-Fluoroethoxy)phenyl]-4-(2-pyridin-2-yl-5,6-dihydro-4H-pyrrolo[1,2-b]pyrazol-3-yl)quinoline Trifluoroacetic Acid] cannot be ordered by IC50: at most 100 nM for the first, at most 100 nM for the second.

`COCCOc1ccc(-c2ccc3c(-c4c(-c5ccccn5)nn5c4CCC5)ccnc3c2)cc1` [Example 118] and `FC(F)(F)COc1ccc(-c2ccc3c(-c4c(-c5ccccn5)nn5c4CCC5)ccnc3c2)cc1` [Example 120, 4-(2-Pyridin-2-yl-5,6-dihydro-4H-pyrrolo[1,2-b]pyrazol-3-yl)-7-[4-(2,2,2-trifluoroethoxy)phenyl)quinoline Trifluoroacetic Acid] cannot be ordered by IC50: at most 100 nM for the first, at most 100 nM for the second.

Compound `CC(C)(C)OC(=O)NCCNC(=O)c1ccc(-c2ccc3c(-c4c(-c5ccccn5)nn5c4CCC5)ccnc3c2)cc1` [Example 121, (2-{4-[4-(2-Pyridin-2-yl-5,6-dihydro-4H-pyrrolo[1,2-b]pyrazol-3-yl)-quinolin-7-yl]-benzoylamino}-ethyl)-carbamic Acid tert-Butyl Ester] has an IC50 of at most 100 nM.
